Values of other authors as cited in US20180221332A1, “Flash-Melt Cannabinoid Formulations” (CannTab Therapeutics Limited, priority 2017, published 2018).

How the values were obtained:
[1] = NICHD/FDA Oral Formulations Platform Report 1; low solubility, unknown permeability
[2] = after administration

CCCCCc1cc(O)c2c(c1)OC(C)(C)[C@@H]1CCC(C)=C[C@@H]21 [Dronabinol, (−)-trans-Δ^9-tetrahydrocannabinol]
biopharmaceutics class [1]: class 2 or class 4
duration of appetite stimulant effect [2]: ≥ 24 h
